This is an account of results in patent publication US20190002942A1, “ANTIBIOTIC FIIRV 104/18 COMPLEX AND THE ISOLATED INDIVIDUAL FACTORS THEREOF” (Fondazione Istituto Insubrico di Ricerca per la Vita, priority 2015, published 2019).

In one data set the test system is L1577 S. epidermidis. The experiment in a line: MIC, broth microdilution (CLSI). It counts as cell-based. The conditions noted are these: Staphylococcus epidermidis. How it is done:
(§1) Inocula are: 2-5×10^5 CFU/mL for Gram positive and Gram negative bacteria; 10^4 CFU/mL for Candida albicans.
(§2) The effect of 30% bovine serum is determined under the same experimental conditions.
(§3) Cultures are incubated at 35° C. in air. After 18-24 hours visual readings are performed and MICs determined. The MIC (Minimal Inhibitory Concentration) is defined as the lower concentration of antibiotic at which there is no visible growth. The strains used are clinical isolates or strains from American Type Culture Collection (ATCC).

A further data set relates to L47 E. coli, SKF 12140. In words: MIC, broth microdilution (CLSI). It counts as cell-based. The conditions noted are these: Escherichia coli. How it is done:
as §1, §2, §3
Background: In broth dilution the organism is exposed to a series of concentrations in liquid medium.

The next data set has as its system L1400 S. aureus MRSA. In words: MIC, broth microdilution (CLSI). In kind it is cell-based. The note with it: Staphylococcus aureus. The method, then:
as §1, §2, §3

Another data set concerns L559 E. faecalis. The experiment in a line: MIC, broth microdilution (CLSI). In kind it is cell-based. The note with it: Enterococcus faecalis. The method, then:
as §1, §2, §3

In a further data set the test system is L1730 S. haemolyticus. The experiment in a line: MIC, broth microdilution (CLSI). In kind it is cell-based. The conditions noted are these: Staphylococcus haemolyticus. How it is done: as §1, §2, §3
In a further data set the test system is L44 S. pneumoniae. The experiment in a line: MIC, broth microdilution (CLSI). The note with it: Streptococcus pneumoniae. In kind it is cell-based. How it is done:
as §1, §2, §3

In the next data set the test system is L568 E. faecium. The experiment in a line: MIC, broth microdilution (CLSI). In kind it is cell-based. The note with it: Enterococcus faecium. How it is done:
as §1, §2, §3

The test system of data set [1] is L1729 S. haemolyticus MDR. In words: MIC, broth microdilution (CLSI). It counts as cell-based. The note with it: Staphylococcus haemolyticus. How it is done:
as §1, §2, §3

The test system of the next data set is L100 S. aureus ATCC 6538. The experiment in a line: MIC, broth microdilution (CLSI). The note with it: Staphylococcus aureus, ATCC6538. It counts as cell-based. How it is done: as §1, §2, §3
A further data set concerns L49 S. pyogenes C203. The experiment in a line: MIC, broth microdilution (CLSI). In kind it is cell-based. The conditions noted are these: Streptococcus pyogenes. How it is done:
as §1, §2, §3

The next data set relates to L3294 M. catarrhalis. In words: MIC, broth microdilution (CLSI). In kind it is cell-based. The conditions noted are these: Moraxella catarrhalis. The method, then: as §1, §2, §3
Data set [2] deals with Staphylococcus aureus Smith ATCC 19636. The experiment in a line: Murine Staphylococcus aureus infection model. It counts as in vivo, ICR mice. The conditions noted are these: ATCC19636, read-out: ED50 (50% effective dose). How it is done: Female ICR mice (Harlan, Italy) weighing 21-24 g are infected intraperitoneally (ip) with 5×10^4 cells of Staphylococcus aureus Smith ATCC 19636 in 0.5 mL of 5% gastric mucine. Antibiotic FIIRV 104/18 factor F795 is administered intravenously (iv) within 10-15 min after infection. […] In: Statistical Methods in Biological Assay, 524-530, (1952) Charles Griffin &Co., Ltd., London].

The subject of data set [3] is L819 S. aureus Smith ATCC19636. The experiment in a line: MIC, broth microdilution (CLSI). In kind it is cell-based, Staphylococcus aureus. How it is done: as §1, §2, §3
The subject of a further data set is L560 E. faecalis VanA. The experiment in a line: MIC, broth microdilution (CLSI). It counts as cell-based, Enterococcus faecalis. How it is done: as §1, §2, §3
The subject of a further data set is L569 E. faecium VanA. In words: MIC, broth microdilution (CLSI). It counts as cell-based, Enterococcus faecium. The method, then: as §1, §2, §3
A further data set concerns L145 C. albicans. In words: MIC, broth microdilution (CLSI). It counts as cell-based, Candida albicans. The note with it: Candida albicans; L145 C. albicans; RPMI; inoculum 10^4 CFU/mL; read-out: MIC. The method, then:
(§4) Antimicrobial activity of the antibiotic FIIRV 104/18 complex is determined by the broth microdilution method according to the procedures published by the Clinical and Laboratory Standards Institute (CLSI), formerly the National Committee for Clinical Laboratory Standards (NCCLS) (document M07-A9). Inocula are: 2-5×10^5 CFU/mL for Gram positive and Gram negative bacteria; 10^4 CFU/mL for Candida albicans.
(§5) The media used are: cation adjusted Mueller Hinton broth (CAMHB) for Staphylococci, Enterococci, Moraxella catarrhalis, Escherichia coli; Todd Hewitt broth (THB) for Streptococci; RPMI 1640 Medium for C. albicans. The effect of 30% bovine serum is determined under the same experimental conditions.
(§6) Cultures are incubated at 35° C. in air. After 18-24 hours visual readings are performed and MICs determined. The MIC (Minimal Inhibitory Concentration) is defined as the lower concentration of antibiotic at which there is no visible growth. The strains used are clinical isolates or strains from American Type Culture Collection (ATCC). Individual factors of antibiotic FIIRV 104/18 are dissolved in DMSO to obtain a 1000 μg/mL stock solution, and subsequently diluted in water to obtain working solution.

Another data set relates to L3030 A. baumannii. In words: MIC, broth microdilution (CLSI). In kind it is cell-based. The note with it: Acinetobacter baumannii; L3030 A. baumannii; read-out: MIC. How it is done: as §1, §2, §3
Another data set deals with L2048 B. cenocepacia. In words: MIC, broth microdilution (CLSI). In kind it is cell-based. The note with it: Burkholderia cenocepacia; L2048 B. cenocepacia; read-out: MIC. The method, then: as §4, §5, §6
The next data set concerns HeLa cells. The experiment in a line: Inhibition of replication of HeLa cells. In kind it is cell-based.
For data set [4], the system named is Gram-positive susceptible, resistant and multi-resistant pathogenic bacteria. The experiment in a line: Growth inhibition of Gram-positive bacteria (summary). In kind it is cell-based. The conditions noted are these: Gram positive bacteria: Staphylococci incl. MRSA and MR coagulase-negative, Streptococci, Enterococci incl. VanA. The method, then: as §4, §5, §6

Converted amounts (≈) assume the structure as drawn. Read-outs that look alike come from different tables or passages of the source. A value given as a limit tells only on which side of the number the result lay.

In the case of `CN[C@H](CC(C)C)C(=O)N[C@H]1C(=O)N[C@@H](CC(N)=O)C(=O)N[C@H]2C(=O)N[C@H]3C(=O)N[C@H](C(=O)N[C@H](C(=O)O)c4cc(O)cc(O)c4-c4cc3ccc4O)[C@H](O)c3ccc(c(Cl)c3)Oc3cc2cc(c3O[C@@H]2O[C@H](CO)[C@@H](O)[C@H](O)[C@H]2O[C@H]2C[C@](C)(N)[C@H](O)[C@H](C)O2)Oc2ccc(cc2Cl)[C@H]1O` [V, vancomycin, reference compound], the MIC is 2 µg/mL (≈ 1.38 µM) with L1577 S. epidermidis; more than 2 µg/mL in the data set on L47 E. coli, SKF 12140; 1 µg/mL (≈ 0.69 µM) with L1400 S. aureus MRSA (MRSA); 1 µg/mL (≈ 0.69 µM) against L559 E. faecalis; 2 µg/mL (≈ 1.38 µM) in the data set with L1730 S. haemolyticus; 0.5 µg/mL (≈ 0.345 µM) in the data set with L44 S. pneumoniae. The MIC in the data set with L568 E. faecium was 2 µg/mL (≈ 1.38 µM); in [1], 2 µg/mL (≈ 1.38 µM); in the data set with L100 S. aureus ATCC 6538, 1 µg/mL (≈ 0.69 µM); in the data set with L49 S. pyogenes C203, 0.5 µg/mL (≈ 0.345 µM); with L3294 M. catarrhalis, more than 2 µg/mL; in [3] (L819 S. aureus Smith, +30% SB (bovine serum)), 1 µg/mL (≈ 0.69 µM). Besides, the MIC in [3] (Staphylococcus aureus, ATCC19636) was 1 µg/mL (≈ 0.69 µM); with L560 E. faecalis VanA (Enterococcus faecalis), more than 128 µg/mL; with L560 E. faecalis VanA (L560 E. faecalis VanA, +30% SB (bovine serum)), more than 128 µg/mL; against L569 E. faecium VanA (Enterococcus faecium), more than 128 µg/mL; against L569 E. faecium VanA (L569 E. faecium VanA, +30% SB (bovine serum)) it was more than 128 µg/mL. Further, the ED50 in data set [2] turned out to be 0.93 mg/kg.
Take `COC(=O)c1c(C)cc2c(c1O)[C@]1(O)C(=O)c3cc4c(c(O)c3C(=O)[C@]1(OC)[C@H](O)C2)C(=O)C=C(NC1O[C@@H](C)[C@H](OC2CC[C@H](O)C(C)O2)[C@@H](O)[C@H]1OC)C4=O` (stereo partly drawn) [F797, (6R,6aS,14aR)-methyl 11-[(2S,3R,4R,5R,6S)-4-hydroxy-5-{[(2R,5S,6S)-5-hydroxy-6-methyltetrahydro-2H-pyran-2-yl]oxy}-3-methoxy-6-methyltetrahydro-2H-pyran-2-ylamino]-1,6,8,14a-tetrahydroxy-6a-methoxy-3-methyl-7,9,12,14-tetraoxo-5,6,6a,7,9,12,14,14a-octahydrobenzo[α]tetracene-2-carboxylate]: the MIC with L145 C. albicans is more than 128 µg/mL; in the data set with L1577 S. epidermidis (L1577 S. epidermidis, CAMHB, read-out: MIC) it was 0.015 µg/mL (≈ 0.0188 µM); in the data set on L47 E. coli, SKF 12140 (L47 E. coli, SKF 12140, CAMHB, read-out: MIC), 64 µg/mL (≈ 80.2 µM); with L1400 S. aureus MRSA (L1400 S. aureus MRSA, CAMHB, read-out: MIC), 0.015 µg/mL (≈ 0.0188 µM); in the data set with L559 E. faecalis (L559 E. faecalis, CAMHB, read-out: MIC), 0.25 µg/mL (≈ 0.313 µM); in the data set on L1730 S. haemolyticus (L1730 S. haemolyticus, CAMHB, read-out: MIC), 0.015 µg/mL (≈ 0.0188 µM). Further, the MIC in the data set on L44 S. pneumoniae (L44 S. pneumoniae, THB, read-out: MIC) came to 0.004 µg/mL (≈ 0.00501 µM); in the data set with L568 E. faecium (L568 E. faecium, CAMHB, read-out: MIC), 0.5 µg/mL (≈ 0.627 µM); in data set [1] (L1729 S. haemolyticus MDR, CAMHB, read-out: MIC), 0.015 µg/mL (≈ 0.0188 µM); in the data set with L100 S. aureus ATCC 6538 (L100 S. aureus ATCC 6538, CAMHB, read-out: MIC), 0.008 µg/mL (≈ 0.01 µM); with L49 S. pyogenes C203 (L49 S. pyogenes C203, THB, read-out: MIC), 0.002 µg/mL (≈ 0.00251 µM); in the data set with L3294 M. catarrhalis (L3294 M. catarrhalis, CAMHB, read-out: MIC), 0.06 µg/mL (≈ 0.0752 µM). Moreover, the MIC with L3030 A. baumannii stood at 16 µg/mL (≈ 20.1 µM); in the data set with L2048 B. cenocepacia it was 16 µg/mL (≈ 20.1 µM); in data set [3] (Staphylococcus aureus, ATCC19636, L819 S. aureus Smith ATCC19636, CAMHB, read-out: MIC), 0.002 µg/mL (≈ 0.00251 µM); in data set [3] (Staphylococcus aureus, ATCC19636, L819 S. aureus Smith, +30% SB (bovine serum), read-out: MIC), 0.125 µg/mL (≈ 0.157 µM); in the data set with L560 E. faecalis VanA (Enterococcus faecalis, L560 E. faecalis VanA, +30% SB (bovine serum), read-out: MIC), 0.5 µg/mL (≈ 0.627 µM); in the data set on L560 E. faecalis VanA (Enterococcus faecalis, L560 E. faecalis VanA, CAMHB, read-out: MIC), 0.125 µg/mL (≈ 0.157 µM). The MIC with L569 E. faecium VanA (Enterococcus faecium, L569 E. faecium VanA, +30% SB (bovine serum), read-out: MIC) was 2 µg/mL (≈ 2.51 µM); with L569 E. faecium VanA (Enterococcus faecium, L569 E. faecium VanA, CAMHB, read-out: MIC), 0.5 µg/mL (≈ 0.627 µM). For the same molecule, in the data set on HeLa cells (HeLa cells), the “cytotoxicity (in words)” value is given as “moderate cytotoxicity”. Further, the IC50 with HeLa cells (Homo sapiens, HeLa) is 5 µg/mL (≈ 6.27 µM). Further, the “antibacterial activity (in words)” value in [4] was “very high antibacterial activity”.

By MIC is commonly meant the smallest concentration in the dilution series that meets the test's criterion for growth inhibition. For orientation: ED50 means the dose that gives a 50% effect, or the effect in half of the subjects. Usually IC50 stands for the point on the concentration scale where inhibition reaches its midpoint.
